According to ChEMBL document CHEMBL4308823, “Small Molecule Mitochondrial Uncouplers and Their Therapeutic Potential” (J Med Chem, 2018):

Columns and labels:
143B = assay: Cytotoxicity against human 143B cells after 24 hrs by LDH release assay; assay type: cell-based
HCT-116 = assay: Cytotoxicity against human HCT116 cells after 48 hrs by MTT assay; assay type: cell-based; conditions: HCT-116, 48 h
Hepatocyte = assay: Cytotoxicity against Sprague-Dawley rat hepatocytes after 24 hrs by MTT assay; assay type: cell-based
[1] = Dissociation constant, pKa of compound
[2] = Acute toxicity in po dosed mouse; assay type: organism-based; conditions: in vivo
[3] = Toxicity in rat; conditions: in vivo
Mus musculus [4] = assay: Antiobesity activity in high fat diet-induced obese C57BL/6 mouse assessed as reduction in body weight at 50 umol/kg/day for 16 days relative to control; assay type: functional; design: scale not given: the % may be the effect or the level left
Mus musculus [5] = assay: Antiobesity activity in high fat diet-induced obese C57BL/6 mouse assessed as reduction in fat mass at 50 umol/kg/day for 16 days relative to control; assay type: functional; design: scale not given: the % may be the effect or the level left
[6] = Toxicity in po dosed rat; assay type: organism-based; conditions: in vivo
[7] = Toxicity in human assessed as weight loss
[8] = Toxicity in dog; design: species or system Canis lupus familiaris; conditions: in vivo
in vivo = conditions: mouse
Liver = assay: Mitochondrial uncoupling activity in mouse liver mitochondria assessed as effect on succinoxldase coupled phosphorylation; assay type: functional
Mus musculus [9] = assay: Anorectic activity in C57Bl/6J mouse assessed as reduction in body weight at 30 umol/kg for 6 consecutive days relative to control; assay type: functional; design: scale not given: the % may be the effect or the level left
Mus musculus [10] = assay: Anorectic activity in C57Bl/6J mouse assessed as reduction in fat mass at 30 umol/kg for 6 consecutive days relative to control; assay type: functional; design: scale not given: the % may be the effect or the level left
[11] = Uncoupling activity in rat mitochondria assessed as increase in oxygen consumption by mitochondrial respiration assay; assay type: functional
[12] = Acute toxicity in C57BL/6J mouse administered via oral gavage; conditions: in vivo
C2C12 = assay: Cytotoxicity against mouse C2C12 cells after overnight incubation; assay type: cell-based
HL-60 = assay: Cytotoxicity against human HL60 cells after 24 to 48 hrs by MTT assay; assay type: cell-based
Mus musculus [13] = assay: Antiobesity activity in high fat diet-induced obese C57BL/6J mouse assessed as reduction in body fat mass at 5 mg/kg, po administered via gavage treated 3 times per week for 6 weeks relative to control; assay type: functional; design: scale not given: the % may be the effect or the level left
Mus musculus [14] = assay: Antiobesity activity in high fat diet-induced obese C57BL/6J mouse assessed as reduction in body weight at 5 mg/kg, po administered via gavage treated 3 times per week for 6 weeks relative to control; assay type: functional; design: scale not given: the % may be the effect or the level left
[15] = Mitochondrial uncoupling activity in Arabidopsis root cells assessed as inhibition of clathrin-mediated endocytosis by measuring reduction of FM4-64 uptake; assay type: functional, mitochondria, Arabidopsis thaliana, Mitochondria

COC1=C(OC)C(=O)C(CCCCCCCCCC[P+](c2ccccc2)(c2ccccc2)c2ccccc2)=C(C)C1=O [MITOQUINONE CATION]
Activity (143B): > 10 µM

CC(C)(C)c1cc(C=C(C#N)C#N)cc(C(C)(C)C)c1O [TYRPHOSTIN A9]
IC50 (HCT-116): > 200 nM
IC50 (Hepatocyte): > 970 nM
pKa [1]: 6.7
LD50 [2]: 29 mg/kg

NCCO.O=C(Nc1ccc([N+](=O)[O-])cc1Cl)c1cc(Cl)ccc1O
LD50 [3]: 500 mg/kg

CCCCCCCCCCCC[P+](c1ccccc1)(c1ccccc1)c1ccccc1
Activity (Mus musculus [4]): 12%
Activity (Mus musculus [5]): 24%

FC(F)(F)c1nc2c(Cl)c(Cl)c(Cl)c(Cl)c2[nH]1
LD50 [6]: 1.6 mg/kg
pKa [1]: 5.04 to 5.6

O=[N+]([O-])c1cc(CCC[P+](c2ccccc2)(c2ccccc2)c2ccccc2)cc([N+](=O)[O-])c1O
pKa [1]: 4.48

O=[N+]([O-])c1ccc(O)c([N+](=O)[O-])c1 [2,4-DINITROPHENOL]
LD50 [6]: 30 mg/kg
LD [7]: 0.8 to 3 g
LD50 [8]: 30 mg/kg
pKa [1]: 4.1

N#CC(C#N)=NNc1ccc(OC(F)(F)F)cc1
LD50 (in vivo): 8 mg/kg
EC50 (Liver): 40 nM
pKa [1]: 6.2

CCCCOC(=O)c1ccccc1-c1c2cc(C)/c(=N\CC)cc-2oc2cc(NCC)c(C)cc12
Activity (Mus musculus [9]): 19%
Activity (Mus musculus [10]): 20%
EC50 [11]: 1000 nM
pKa [1]: 7.3

CCOC(=O)C1=C(C)N=c2s/c(=C/c3cc(Br)c(O)c(Br)c3)c(=O)n2C1c1ccc(Cl)cc1 (configuration not stated)
LD50 [12]: 12.7 mg/kg

O=[N+]([O-])c1ccc(OCc2ccc(OCCCC[P+](c3ccccc3)(c3ccccc3)c3ccccc3)cc2[N+](=O)[O-])c([N+](=O)[O-])c1
Activity (C2C12): > 5 µM

N#CC(C#N)=NNc1cccc(Cl)c1 [CARBONYL CYANIDE M-CHLOROPHENYLHYDRAZONE]
EC50 (Liver): 100 nM

CC(C)(C)c1cc(Cl)cc(C(=O)Nc2ccc([N+](=O)[O-])cc2Cl)c1O
pKa [1]: 5.8

O=C(Nc1cc(Cl)cc(Cl)c1)Nc1cc(Cl)cc(Cl)c1
Activity (HL-60): > 25 µM
Activity (Mus musculus [13]): 35%
Activity (Mus musculus [14]): 16%

O=[N+]([O-])c1ccc(NS(=O)(=O)c2ccc(Br)s2)cc1
IC50 [15]: 5000 nM

CCCCN1CCCCC1C(=O)Nc1c(C)cccc1C (configuration not stated) [BUPIVACAINE]
LD50 [3]: 4.25 to 12.7 mg/kg
pKa [1]: 8.1
